Measured values reported in US9849116B2 (KNOPP BIOSCIENCES LLC, priority 2008, dated 2017).
Where two headings read alike, the source gives them in different places.

Key:
[1] = tested on: healthy volunteers
Method: (§3) The first panel was administered a singe dose of 50 mg, followed 48 hours later by 4½ days of multiple dosing (twice daily) at 50 mg Q12 hours. The second panel was administered a singe dose of 100 mg, followed 48 hours later by 4½ days of multiple dosing (twice daily) at 100 mg Q12 hours. Safety observations included vital signs, physical examination, clinical laboratory tests, ECGs, and adverse event reporting. Blood samples were collected pre-dose on Day 1 and serially for 48 hours post-dose to assess the single-dose pharmacokinetics.

[2] = tested on: minipigs; conditions: ongoing 9-month study past month 7
[3] = tested on: minipigs
[4] = tested on: rats; conditions: 6 months, 30, 100, 300 mg/kg
[5] = in vivo; conditions: both, minipig
[6] = in vivo; conditions: male, dog, po
Method: Three groups of four non-naïve male beagle dogs were used in the study. […] Doses were administered orally by gavage and clinical observations were taken continuously following dosing: hourly for the first four hours, and then twice daily cage-side observations for the duration of the inter-dose or post-dose interval. Observations were made of clinical signs, mortality, injury and availability of food and water. Animals were fasted for 24 hr prior to dosing. Dogs in each group were exposed to only one drug, or the combination; each dose was administered only once, with a subsequent dose administered after a recovery period of 4 days.

[7] = target: D1 dopamine receptor (Homo sapiens, UniProt P21728)
Chain of D1 dopamine receptor (P21728 whole entry): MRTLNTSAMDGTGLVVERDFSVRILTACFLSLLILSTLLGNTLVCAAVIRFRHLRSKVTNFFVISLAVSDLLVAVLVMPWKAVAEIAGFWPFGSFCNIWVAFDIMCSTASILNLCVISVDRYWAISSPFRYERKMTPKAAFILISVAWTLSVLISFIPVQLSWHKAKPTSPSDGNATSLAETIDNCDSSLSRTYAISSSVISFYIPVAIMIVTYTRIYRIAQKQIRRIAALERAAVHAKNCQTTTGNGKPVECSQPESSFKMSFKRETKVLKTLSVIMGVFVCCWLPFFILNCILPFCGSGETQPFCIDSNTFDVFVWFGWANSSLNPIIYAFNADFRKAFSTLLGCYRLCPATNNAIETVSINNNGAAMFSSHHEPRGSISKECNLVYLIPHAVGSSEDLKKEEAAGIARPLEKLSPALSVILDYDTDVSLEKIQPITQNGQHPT
Method: (§1) These concentrations were tested in cell lines expressing select human cloned dopamine receptors (D2S, D3).

[8] = target: D5 dopamine receptor (Homo sapiens, UniProt P21918)
Chain of D5 dopamine receptor (P21918 whole entry): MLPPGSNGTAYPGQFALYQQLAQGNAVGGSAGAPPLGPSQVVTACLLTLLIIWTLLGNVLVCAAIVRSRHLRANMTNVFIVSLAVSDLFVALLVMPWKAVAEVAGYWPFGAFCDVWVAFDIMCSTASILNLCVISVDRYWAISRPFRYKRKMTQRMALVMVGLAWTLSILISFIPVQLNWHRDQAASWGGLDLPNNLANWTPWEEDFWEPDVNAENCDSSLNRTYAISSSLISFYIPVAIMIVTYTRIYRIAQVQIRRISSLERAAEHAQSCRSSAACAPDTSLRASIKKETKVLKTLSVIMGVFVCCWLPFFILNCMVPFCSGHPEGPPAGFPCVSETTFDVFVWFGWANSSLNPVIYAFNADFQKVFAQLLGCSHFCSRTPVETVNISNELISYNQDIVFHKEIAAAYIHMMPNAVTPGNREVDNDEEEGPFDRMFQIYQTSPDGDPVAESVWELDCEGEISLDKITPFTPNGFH
Method: as §1

[9] = in vivo; conditions: both, rat, in vivo
Method: (§2) Following this study, 3- and 6-month repeat dose toxicology studies were completed at doses of 30, 100, and 300 mg/kg.

[10] = tested on: rats; assay: in vivo
Method: as §2

[11] = tested on: minipigs; conditions: 6 months
[12] = clinical; conditions: human, plasma
Method: as §3

[13] = Day 1, 100 mg oral dose, fasted
[14] = Day 7, 50 mg Q12H on Days 3 through 6 and a single dose on Day 7, fasted
[15] = Day 7, 100 mg Q12H on Days 3 through 6 and a single dose on Day 7, fasted

For `CCCN[C@@H]1CCc2nc(N)sc2C1` [(R)-pramipexole, (6R)-4,5,6,7-tetrahydro-N6-propyl-2,6-benzothiazole-diamine], the “increase of Cmax from Day 1 to Day 7” value ([1]; 50 mg Q12H) was 37%, the “CL/F (mean ± SD)” value ([1]; 50 mg Q12H (Day 1), Fasted) was 571 ± 107 mL/h and the “CL/F (mean ± SD)” value ([1]; 50 mg Q12H (Day 7), Fasted) was 585 ± 81.6 mL/h. The “increase of AUC(0-12) from Day 1 to Day 7” value ([1]; 100 mg Q12H) was 38%, the “increase of Cmax from Day 1 to Day 7” value ([1]; 100 mg Q12H) was 24% and the “CL/F (mean ± SD)” value ([1]; 100 mg Q12H (Day 1), Fasted) was 665 ± 107 mL/h. The “CL/F (mean ± SD)” value ([1]; 100 mg Q12H (Day 7), Fasted) was 684 ± 76.1 mL/h, the “AUC(0−12) (mean ± SD)” value ([1]; Day 1, 50 mg oral dose, fasted) was 1,035 ± 121 h · ng/mL and the “AUC(0−t) (mean ± SD)” value ([1]; Day 1, 50 mg oral dose, fasted) was 1,463 ± 280 h · ng/mL. For the same compound, the “AUC(inf) (mean ± SD)” value ([1]; Day 1, 50 mg oral dose, fasted) was 1,502 ± 280 h · ng/mL, the “CL/F (mean ± SD)” value ([1]; Day 1, 50 mg oral dose, fasted) was 34300 ± 6420 mL/h and the “λz (mean ± SD)” value ([1]; Day 1, 50 mg oral dose, fasted) was 0.1132 ± 0.0230 h⁻¹. The “AUC(0−12) (mean ± SD)” value [1, 13] was 1,776 ± 260 h · ng/mL, the “AUC(0−t) (mean ± SD)” value [1, 13] was 2,545 ± 497 h · ng/mL and the “CL/F (mean ± SD)” value [1, 13] was 39900 ± 6420 mL/h. The “λz (mean ± SD)” value [1, 13] was 0.1073 ± 0.0161 h⁻¹, the “AUC(0-12) (mean ± SD)” value [1, 14] was 1,449 ± 221 h · ng/mL and the “CL/F (mean ± SD)” value [1, 14] was 35100 ± 4900 mL/h. For the same compound, the “λz (mean ± SD)” value [1, 14] was 0.1025 ± 0.0186 h⁻¹, the “AUC(0-12) (mean ± SD)” value [1, 15] was 2,465 ± 299 h · ng/mL and the “CL/F (mean ± SD)” value [1, 15] was 41000 ± 4570 mL/h. For the same compound, the “λz (mean ± SD)” value [1, 15] was 0.0894 ± 0.0117 h⁻¹, the “projected steady-state exposure (AUC)” value ([1]; humans, total daily dose 500 mg as 250 mg Q12H) was “approximately 7,000 h*ng/mL” and the safety and tolerability ([1]; multiple oral doses of 50 and 100 mg twice daily) was “safe and well-tolerated”. For the same compound, the “deaths and clinical observations” value [2] was “no deaths attributed to test article or significant clinical observations”, the “incidence of emesis (at least one episode)” value ([3]; both, minipig, in vivo, 75 mg/kg, 14 days) was 5 of 8 and the NOAEL ([3]; minipigs, 2 weeks (14 days)) was “greater than or equal to 75 mg/kg”. For the same compound, the “mortality between the 13-week and 26-week sacrifices” value [4] was “no mortalities at any dose level”, the NOAEL at 14 days [5] was 75 mg/kg and the MTD at 4 days [6] was 75 mg/kg. The NOAEL at 4 days [6] was 25 mg/kg, the “interaction with D1 dopamine receptor” value [7] was “no significant interaction” and the “interaction with D5 dopamine receptor” value [8] was “no significant interaction”. For the same compound, the NOAEL at 3 months [9] was 100 mg/kg, the NOAEL at 14 days [9] was 150 mg/kg and the “target organ toxicity by histopathology examination” value ([10]; rat, in vivo, 300 mg/kg) was “some target organ toxicity”. For the same compound, the “test article related deaths” value ([10]; rats, 3 months, 30, 100, 300 mg/kg) was “no test article related deaths”, the mortality ([10]; rats, high dose 500 mg/kg, 14 days) was “caused mortality” and the “mortality and clinical observations between the 13-week and 26-week sacrifices” value [11] was “no mortalities attributed to test article or significant clinical observations”. It also gave a Cmax ([12]; oral, 50 mg) of 191 ± 20.9 ng/mL, a Tmax ([12]; oral, 50 mg) of 1.75 h and a Vd/F ([12]; oral, 50 mg) of 346 ± 30.1 L. For the same compound, the AUC(0-t) ([12]; oral, 50 mg, AUC(0-12) (mean ± SD), Day 7, 50 mg Q12H on Days 3 through 6 and a single dose on Day 7, fasted) was 1450 ng·h/mL, the AUC(0-t) ([12]; oral, 50 mg, mean exposure AUC(0-12) at Day 7, 50 mg Q12H) was 1450 ng·h/mL and the Cmax ([12]; oral, 100 mg) was 306 ± 55 ng/mL. For the same compound, the Tmax ([12]; oral, 100 mg) was 2 h, the AUC(0-t) ([12]; oral, 100 mg, AUC(0-12) (mean ± SD), Day 7, 100 mg Q12H on Days 3 through 6 and a single dose on Day 7, fasted) was 2460 ng·h/mL and the AUC(0-t) ([12]; oral, 100 mg, mean exposure AUC(0-12) at Day 7, 100 mg Q12H) was 2460 ng·h/mL. It also gave an AUC(0-inf) ([12]; po, 50 mg) of 1500 ng·h/mL, a Tmax ([12]; po, 50 mg) of 1.83 h and a Vd/F ([12]; po, 50 mg) of 306 ± 45.8 L. The AUC(0-t) ([12]; po, 50 mg, AUC(0−12) (mean ± SD), Day 1, 50 mg oral dose, fasted) was 1040 ng·h/mL, the AUC(0-t) ([12]; po, 50 mg, AUC(0−t) (mean ± SD), Day 1, 50 mg oral dose, fasted) was 1460 ng·h/mL and the AUC(0-inf) ([12]; po, 100 mg) was 2570 ng·h/mL. The Cmax ([12]; po, 100 mg) was 248 ± 30.4 ng/mL, the Tmax ([12]; po, 100 mg) was 1.92 h and the Vd/F ([12]; po, 100 mg) was 373 ± 51 L. It also gave an AUC(0-t) ([12]; po, 100 mg, AUC(0−12) (mean ± SD), Day 1, 100 mg oral dose, fasted) of 1780 ng·h/mL and an AUC(0-t) ([12]; po, 100 mg, AUC(0−t) (mean ± SD), Day 1, 100 mg oral dose, fasted) of 2540 ng·h/mL.
